Five compounds from ChEMBL document CHEMBL3044635, “Effect of propiconazole and difenoconazole on the control of anthracnose of chilli fruits caused by Colletotrichum capsici” (Crop Prot, 2006) can be followed below.

Bounds are passed on as bounds.

As usually defined, the inhibition is how much of the control response was suppressed.

In data set [1] the test system is Colletotrichum truncatum. Put plainly: Fungicidal activity against Colletotrichum capsici assessed as inhibition of mycelial growth. The class given is functional.
Data set [2] relates to Colletotrichum truncatum. As to the kind of experiment: Fungicidal activity against Colletotrichum capsici assessed as reduction of pectin trans-eliminase production at 1 ug/ml incubated for 10 days measured up to 120 min by Ostwald-Fenske viscometric analysis (reference value: 38.5%). The class given is functional. More on the design: scale not given: the % may be the effect or the level left.

Data set [3] deals with Colletotrichum truncatum. Put plainly: Fungicidal activity against Colletotrichum capsici assessed as reduction of polygalacturonase trans-eliminase production at 1 ug/ml incubated for 10 days measured up to 120 min by Ostwald-Fenske viscometric analysis (reference value: 40.8%). On the set-up: scale not given: the % may be the effect or the level left. The class given is functional.

The subject of data set [4] is Colletotrichum truncatum. As to the kind of experiment: Fungicidal activity against Colletotrichum capsici assessed as reduction of polygalacturonase production at 1 ug/ml incubated for 10 days measured up to 120 min by Ostwald-Fenske viscometric analysis (reference value: 45.3%). The format is functional. More on the design: scale not given: the % may be the effect or the level left.

In data set [5] the test system is Colletotrichum truncatum. As to the kind of experiment: Fungicidal activity against Colletotrichum capsici assessed as sporulation at 50 ug/ml incubated 16 hr photoperiod for 20 days by haemocytometer (reference value: 0.081 x 10^6 ml'-1). The format is functional.
The subject of data set [6] is Colletotrichum truncatum. Put plainly: Fungicidal activity against Colletotrichum capsici assessed as sporulation at 25 ug/ml incubated 16 hr photoperiod for 20 days by haemocytometer (reference value: 0.081 x 10^6 ml'-1). The format is functional.
The subject of data set [7] is Colletotrichum truncatum. Put plainly: Fungicidal activity against Colletotrichum capsici assessed as sporulation at 10 ug/ml incubated 16 hr photoperiod for 20 days by haemocytometer (reference value: 0.081 x 10^6 ml'-1). The format is functional.
Data set [8] relates to Colletotrichum truncatum. Put plainly: Fungicidal activity against Colletotrichum capsici assessed as sporulation at 5 ug/ml incubated 16 hr photoperiod for 20 days by haemocytometer (reference value: 0.081 x 10^6 ml'-1). The class given is functional.
Data set [9] concerns Colletotrichum truncatum. Put plainly: Fungicidal activity against Colletotrichum capsici assessed as sporulation at 1 ug/ml incubated 16 hr photoperiod for 20 days by haemocytometer (reference value: 0.081 x 10^6 ml'-1). The format is functional.
The test system of data set [10] is Colletotrichum truncatum. Put plainly: Fungicidal activity against Colletotrichum capsici assessed as sporulation at 0.5 ug/ml incubated 16 hr photoperiod for 20 days by haemocytometer (reference value: 0.081 x 10^6 ml'-1). The class given is functional.
The subject of data set [11] is Colletotrichum truncatum. Put plainly: Fungicidal activity against Colletotrichum capsici assessed as sporulation at 0.1 ug/ml incubated 16 hr photoperiod for 20 days by haemocytometer (reference value: 0.081 x 10^6 ml'-1). The class given is functional.
Data set [12] has as its system Colletotrichum truncatum. As to the kind of experiment: Fungicidal activity against Colletotrichum capsici assessed as spore germination at 50 ug/ml after 48 to 96 hr (reference value: 70.2 CFU). The format is functional.
Data set [13] concerns Colletotrichum truncatum. As to the kind of experiment: Fungicidal activity against Colletotrichum capsici assessed as spore germination at 10 ug/ml after 48 to 96 hr (reference value: 70.2 CFU). The format is functional.
Data set [14] concerns Colletotrichum truncatum. As to the kind of experiment: Fungicidal activity against Colletotrichum capsici assessed as spore germination at 25 ug/ml after 48 to 96 hr (reference value: 70.2 CFU). The class given is functional.
Data set [15] has as its system Colletotrichum truncatum. As to the kind of experiment: Fungicidal activity against Colletotrichum capsici assessed as spore germination at 5 ug/ml after 48 to 96 hr (reference value: 70.2 CFU). The format is functional.
Data set [16] has as its system Colletotrichum truncatum. Put plainly: Fungicidal activity against Colletotrichum capsici assessed as spore germination at 1 ug/ml after 48 to 96 hr (reference value: 70.2 CFU). The class given is functional.
Data set [17] concerns Colletotrichum truncatum. Put plainly: Fungicidal activity against Colletotrichum capsici assessed as spore germination at 0.5 ug/ml after 48 to 96 hr (reference value: 70.2 CFU). The class given is functional.
The test system of data set [18] is Colletotrichum truncatum. As to the kind of experiment: Fungicidal activity against Colletotrichum capsici assessed as inhibition of spore germination at 0.1 ug/ml after 48 to 96 hr relative to control. The class given is functional.
The test system of data set [19] is Colletotrichum truncatum. As to the kind of experiment: Fungicidal activity against Colletotrichum capsici assessed as mycelial biomass at 25 ug/ml incubated 16 hr photoperiod for 20 days (reference value: 675 mg). The class given is functional.
Data set [20] has as its system Colletotrichum truncatum. Put plainly: Fungicidal activity against Colletotrichum capsici assessed as mycelial biomass at 50 ug/ml incubated 16 hr photoperiod for 20 days (reference value: 675 mg). The class given is functional.
For data set [21], the system named is Colletotrichum truncatum. As to the kind of experiment: Fungicidal activity against Colletotrichum capsici assessed as mycelial biomass at 10 ug/ml incubated 16 hr photoperiod for 20 days (reference value: 675 mg). The format is functional.
Data set [22] relates to Colletotrichum truncatum. As to the kind of experiment: Fungicidal activity against Colletotrichum capsici assessed as mycelial biomass at 5 ug/ml incubated 16 hr photoperiod for 20 days (reference value: 675 mg). The class given is functional.
Data set [23] has as its system Colletotrichum truncatum. As to the kind of experiment: Fungicidal activity against Colletotrichum capsici assessed as mycelial biomass at 1 ug/ml incubated 16 hr photoperiod for 20 days (reference value: 675 mg). The format is functional.
The subject of data set [24] is Colletotrichum truncatum. Put plainly: Fungicidal activity against Colletotrichum capsici assessed as mycelial biomass at 0.5 ug/ml incubated 16 hr photoperiod for 20 days (reference value: 675 mg). The format is functional.
Data set [25] concerns Colletotrichum truncatum. As to the kind of experiment: Fungicidal activity against Colletotrichum capsici assessed as mycelial biomass at 0.1 ug/ml incubated 16 hr photoperiod for 20 days (reference value: 675 mg). The format is functional.
Data set [26] has as its system Colletotrichum truncatum. Put plainly: Fungicidal activity against Colletotrichum capsici assessed as linear growth at 50 ug/ml incubated 16 hr photoperiod for 20 days (reference value: 90 mm). The class given is functional.
For data set [27], the system named is Colletotrichum truncatum. Put plainly: Fungicidal activity against Colletotrichum capsici assessed as linear growth at 25 ug/ml incubated 16 hr photoperiod for 20 days (reference value: 90 mm). The format is functional.
Data set [28] concerns Colletotrichum truncatum. Put plainly: Fungicidal activity against Colletotrichum capsici assessed as linear growth at 5 ug/ml incubated 16 hr photoperiod for 20 days (reference value: 90 mm). The class given is functional.
Data set [29] concerns Colletotrichum truncatum. Put plainly: Fungicidal activity against Colletotrichum capsici assessed as linear growth at 10 ug/ml incubated 16 hr photoperiod for 20 days (reference value: 90 mm). The format is functional.
In data set [30] the test system is Colletotrichum truncatum. As to the kind of experiment: Fungicidal activity against Colletotrichum capsici assessed as linear growth at 1 ug/ml incubated 16 hr photoperiod for 20 days (reference value: 90 mm). The class given is functional.
Data set [31] deals with Colletotrichum truncatum. Put plainly: Fungicidal activity against Colletotrichum capsici assessed as linear growth at 0.5 ug/ml incubated 16 hr photoperiod for 20 days (reference value: 90 mm). The class given is functional.
Data set [32] concerns Colletotrichum truncatum. As to the kind of experiment: Fungicidal activity against Colletotrichum capsici assessed as linear growth at 0.1 ug/ml incubated 16 hr photoperiod for 20 days (reference value: 90 mm). The format is functional.
The subject of data set [33] is Colletotrichum truncatum. As to the kind of experiment: Fungicidal activity against Colletotrichum capsici infected chilli plant assessed as fruit length at 0.1% applied as spray on day 10 post inoculation and twice every 20 days measured on day 155 post sowing in green house conditions (reference value: 6.8 to 7 cm). The class given is functional.
The next data set relates to Capsicum annuum. As to the kind of experiment: Phytotoxicity in Capsicum annuum (pepper) at 0.1% applied as spray. The class given is organism-based. As to conditions: in vivo, other.
Data set [34] relates to Colletotrichum truncatum. Put plainly: Fungicidal activity against Colletotrichum capsici infected chilli plant assessed as fruit mass measured per pot at 0.1% applied as spray on day 10 post inoculation and twice every 20 days measured on day 155 post sowing in green house conditions (reference value: 85.3 to 94.5 g). The class given is functional.
Data set [35] concerns Colletotrichum truncatum. As to the kind of experiment: Fungicidal activity against Colletotrichum capsici infected chilli plant assessed as percent disease index at 0.1% applied as spray on day 10 post inoculation and twice every 20 days measured on day 155 post sowing in green house conditions (reference value: 62.5 to 68.6%). The class given is functional.
For data set [36], the system named is Colletotrichum truncatum. Put plainly: Fungicidal activity against Colletotrichum capsici infected chilli plant assessed as fruit length measured per plot at 0.1% applied as spray on day 10 post inoculation and twice every 20 days measured on day 155 post sowing in field conditions (reference value: 8 to 8.7 cm). The class given is functional.
Data set [37] deals with Colletotrichum truncatum. Put plainly: Fungicidal activity against Colletotrichum capsici infected chilli plant assessed as fruit yield measured per plot at 0.1% applied as spray on day 10 post inoculation and twice every 20 days measured on day 155 post sowing in field conditions (reference value: 8.25 to 9.3 kg). The class given is functional.
Data set [38] concerns Colletotrichum truncatum. Put plainly: Fungicidal activity against Colletotrichum capsici infected chilli plant assessed as percent disease index at 0.1% applied as spray on day 10 post inoculation and twice every 20 days measured on day 155 post sowing in field conditions (reference value: 51 to 56.5%). The format is functional.

Consider `CCCCC(O)(Cn1cncn1)c1ccc(Cl)cc1Cl` (configuration not stated) [HEXACONAZOLE], for which the ED50 in the data set on Colletotrichum truncatum [1] is recorded as below 5 ugAi/ml.

For `c1ccc2[nH]c(-c3cscn3)nc2c1` [THIABENDAZOLE], the ED50 in the data set with Colletotrichum truncatum [1] was below 5 ugAi/ml.

With `C=CCOC(Cn1ccnc1)c1ccc(Cl)cc1Cl` (configuration not stated) [ENILCONAZOLE], the ED50 in the data set with Colletotrichum truncatum [1] is recorded as below 5 ugAi/ml.

As to `CC(C)(C)C(O)C(Oc1ccc(-c2ccccc2)cc1)n1cncn1` (configuration not stated) [BITERTANOL], in the data set on Colletotrichum truncatum [1], the ED50 is below 5 ugAi/ml.

With `COC(=O)Nc1nc2ccccc2[nH]1` [CARBENDAZIM], the Activity in the data set on Colletotrichum truncatum [2] is recorded as 18%; in the data set on Colletotrichum truncatum [3], 19%; in the data set with Colletotrichum truncatum [4] it was 13.5%; in the data set with Colletotrichum truncatum [5] it was 0 ×10⁶ /ml; in the data set with Colletotrichum truncatum [6] it was 0 ×10⁶ /ml; in the data set with Colletotrichum truncatum [7], 0 ×10⁶ /ml. For the same compound, the Activity was determined as 1.03 ×10⁶ /ml in the data set on Colletotrichum truncatum [8]; 1.49 ×10⁶ /ml in the data set with Colletotrichum truncatum [9]; 2.42 ×10⁶ /ml with Colletotrichum truncatum [10]; 3.53 ×10⁶ /ml in the data set with Colletotrichum truncatum [11]; 46 mg in the data set on Colletotrichum truncatum [19]; 0 mg in the data set on Colletotrichum truncatum [20]. Further, the Activity with Colletotrichum truncatum [21] was 82 mg; with Colletotrichum truncatum [22], 186 mg; in the data set on Colletotrichum truncatum [23], 304 mg; in the data set with Colletotrichum truncatum [24], 405 mg; in the data set with Colletotrichum truncatum [25], 570 mg; with Colletotrichum truncatum [26] it was 9 mm. For the same compound, the Activity in the data set with Colletotrichum truncatum [27] worked out at 9 mm; in the data set with Colletotrichum truncatum [28], 39.5 mm; in the data set with Colletotrichum truncatum [29], 21.3 mm; with Colletotrichum truncatum [30] it was 45.8 mm; in the data set with Colletotrichum truncatum [31] it was 66.3 mm; with Colletotrichum truncatum [32], 85.5 mm. In addition, the Activity is recorded as 7.3 cm in the data set with Colletotrichum truncatum [33], “Non-toxic” in the data set with Capsicum annuum and 8.5 cm in the data set on Colletotrichum truncatum [36]. For the same compound, the CFU with Colletotrichum truncatum [12] is 0; with Colletotrichum truncatum [13] it was 0; with Colletotrichum truncatum [14] it was 0; in the data set on Colletotrichum truncatum [15] it was 3.2; in the data set on Colletotrichum truncatum [16] it was 10.3; with Colletotrichum truncatum [17], 32.2. For the same compound, the inhibition at 0.1 µg/mL with Colletotrichum truncatum [18] was 35%. Also, the Crop_yield in the data set with Colletotrichum truncatum [34] worked out at 120.8 g; in the data set with Colletotrichum truncatum [37], 11.25 kg. Further, the PDI amounted to 27.7% with Colletotrichum truncatum [35] and 27.5% in the data set on Colletotrichum truncatum [38].
